“And” between values parts separate entries of the source, which are not always exact repeats. Identical values can stand only once. ± gives the uncertainty stated by the source.
Experiment: xn = mol fraction of the nth substance listed

c1ccc2ccccc2c1 + Cc1ccc(C)cc1
viscosity [mPa·s], 101.3 kPa
Details | x1 = 0.00437 | x1 = 0.00869 | x1 = 0.01249 | x1 = 0.01685 | x1 = 0.01712 | x1 = 0.01715 | x1 = 0.01815 | x1 = 0.02139 | x1 = 0.02569 | x1 = 0.02979
293.15 K | 0.6371 ± 0.017 | 0.6386 ± 0.017 | 0.6414 ± 0.017 | – | – | – | 0.6438 ± 0.017 | 0.6483 ± 0.017 | 0.65 ± 0.017 | 0.6534 ± 0.017
298.15 K | 0.5968 ± 0.016 | 0.5992 ± 0.016 | 0.6012 ± 0.016 | – | – | 0.6045 ± 0.016 | – | 0.6076 ± 0.016 | 0.6102 ± 0.016 | 0.6125 ± 0.016
313.15 K | 0.5333 ± 0.014 | 0.5352 ± 0.014 | 0.5363 ± 0.014 | – | 0.5405 ± 0.014 | – | – | 0.5431 ± 0.014 | 0.5447 ± 0.014 | 0.5469 ± 0.014
323.15 K | 0.476 ± 0.013 | 0.4777 ± 0.013 | 0.4789 ± 0.013 | 0.4818 ± 0.013 | – | – | – | 0.4848 ± 0.013 | 0.4862 ± 0.013 | 0.4879 ± 0.013

C1CCOC1 + Cc1ccccc1
303.15 K, 101.33 kPa
Details | viscosity [mPa·s]
x1 = 0.1014 | 0.52 ± 0.005
x1 = 0.1984 | 0.518 ± 0.005
x1 = 0.3066 | 0.512 ± 0.005
x1 = 0.3662 | 0.51 ± 0.005
x1 = 0.4984 | 0.499 ± 0.005
x1 = 0.5997 | 0.489 ± 0.005
x1 = 0.702 | 0.479 ± 0.005
x1 = 0.7981 | 0.467 ± 0.004
x1 = 0.8997 | 0.453 ± 0.004

CC(C)=O + Cc1ccccc1
Details | viscosity
293.15 K, 101.32 kPa, x2 = 0.072 | 0.3349 ± 0.0042 mPa·s
293.15 K, 101.32 kPa, x2 = 0.148 | 0.3525 ± 0.0044 mPa·s
293.15 K, 101.32 kPa, x2 = 0.229 | 0.374 ± 0.0047 mPa·s
293.15 K, 101.32 kPa, x2 = 0.317 | 0.3966 ± 0.0049 mPa·s
293.15 K, 101.32 kPa, x2 = 0.409 | 0.42 ± 0.0052 mPa·s
293.15 K, 101.32 kPa, x2 = 0.509 | 0.4506 ± 0.0055 mPa·s
293.15 K, 101.32 kPa, x2 = 0.617 | 0.4775 ± 0.0058 mPa·s
293.15 K, 101.32 kPa, x2 = 0.735 | 0.5095 ± 0.0062 mPa·s
293.15 K, 101.32 kPa, x2 = 0.862 | 0.5472 ± 0.0066 mPa·s
298.15 K, 101 kPa, x1 = 0.0233 | 0.548 ± 0.004 mPa·s
298.15 K, 101 kPa, x1 = 0.0652 | 0.537 ± 0.004 mPa·s
298.15 K, 101 kPa, x1 = 0.1349 | 0.518 ± 0.004 mPa·s
298.15 K, 101 kPa, x1 = 0.2009 | 0.499 ± 0.004 mPa·s
298.15 K, 101 kPa, x1 = 0.301 | 0.475 ± 0.004 mPa·s
298.15 K, 101 kPa, x1 = 0.3387 | 0.465 ± 0.003 mPa·s
298.15 K, 101 kPa, x1 = 0.412 | 0.445 ± 0.003 mPa·s
298.15 K, 101 kPa, x1 = 0.5133 | 0.419 ± 0.003 mPa·s
298.15 K, 101 kPa, x1 = 0.515 | 0.418 ± 0.003 mPa·s
298.15 K, 101 kPa, x1 = 0.6017 | 0.396 ± 0.003 mPa·s
298.15 K, 101 kPa, x1 = 0.6968 | 0.372 ± 0.003 mPa·s
298.15 K, 101 kPa, x1 = 0.7979 | 0.349 ± 0.003 mPa·s
298.15 K, 101 kPa, x1 = 0.8969 | 0.325 ± 0.003 mPa·s
298.15 K, 101 kPa, x2 = 0.0702 | 0.3418 ± 0.0051 mPa·s and 0.3418 ± 0.0067 mPa·s
298.15 K, 101 kPa, x2 = 0.1468 | 0.3759 ± 0.0055 mPa·s and 0.3759 ± 0.0073 mPa·s
298.15 K, 101 kPa, x2 = 0.2269 | 0.4076 ± 0.0057 mPa·s and 0.4076 ± 0.0079 mPa·s
298.15 K, 101 kPa, x2 = 0.3135 | 0.4383 ± 0.006 mPa·s and 0.4383 ± 0.0085 mPa·s
298.15 K, 101 kPa, x2 = 0.4051 | 0.4662 ± 0.0063 mPa·s and 0.4662 ± 0.009 mPa·s
298.15 K, 101 kPa, x2 = 0.5072 | 0.4893 ± 0.0065 mPa·s and 0.4893 ± 0.0094 mPa·s
298.15 K, 101 kPa, x2 = 0.616 | 0.5092 ± 0.0067 mPa·s and 0.5092 ± 0.0098 mPa·s
298.15 K, 101 kPa, x2 = 0.7355 | 0.5293 ± 0.0069 mPa·s and 0.5293 ± 0.01 mPa·s
298.15 K, 101 kPa, x2 = 0.8629 | 0.5462 ± 0.0071 mPa·s and 0.5462 ± 0.01 mPa·s
298.15 K, 101.32 kPa, x2 = 0.073 | 0.3172 ± 0.004 mPa·s
298.15 K, 101.32 kPa, x2 = 0.148 | 0.3344 ± 0.0042 mPa·s
298.15 K, 101.32 kPa, x2 = 0.229 | 0.353 ± 0.0044 mPa·s
298.15 K, 101.32 kPa, x2 = 0.317 | 0.3764 ± 0.0047 mPa·s
298.15 K, 101.32 kPa, x2 = 0.41 | 0.3994 ± 0.005 mPa·s
298.15 K, 101.32 kPa, x2 = 0.509 | 0.4236 ± 0.0052 mPa·s
298.15 K, 101.32 kPa, x2 = 0.618 | 0.4521 ± 0.0056 mPa·s
298.15 K, 101.32 kPa, x2 = 0.735 | 0.4807 ± 0.0059 mPa·s
298.15 K, 101.32 kPa, x2 = 0.862 | 0.5138 ± 0.0063 mPa·s
303.15 K, 101 kPa, x2 = 0.0702 | 0.3218 ± 0.005 mPa·s and 0.3218 ± 0.0063 mPa·s
303.15 K, 101 kPa, x2 = 0.0929 | 0.3192 ± 0.0086 mPa·s
303.15 K, 101 kPa, x2 = 0.1468 | 0.3527 ± 0.0052 mPa·s and 0.3527 ± 0.0069 mPa·s
303.15 K, 101 kPa, x2 = 0.2269 | 0.381 ± 0.0055 mPa·s and 0.381 ± 0.0074 mPa·s
303.15 K, 101 kPa, x2 = 0.3135 | 0.4098 ± 0.0058 mPa·s and 0.4098 ± 0.0079 mPa·s
303.15 K, 101 kPa, x2 = 0.3674 | 0.4169 ± 0.011 mPa·s
303.15 K, 101 kPa, x2 = 0.4051 | 0.4358 ± 0.006 mPa·s and 0.4358 ± 0.0084 mPa·s
303.15 K, 101 kPa, x2 = 0.5072 | 0.4553 ± 0.0062 mPa·s and 0.4553 ± 0.0088 mPa·s
303.15 K, 101 kPa, x2 = 0.616 | 0.475 ± 0.0064 mPa·s and 0.475 ± 0.0091 mPa·s
303.15 K, 101 kPa, x2 = 0.7355 | 0.4947 ± 0.0066 mPa·s and 0.4947 ± 0.0095 mPa·s
303.15 K, 101 kPa, x2 = 0.8102 | 0.4984 ± 0.013 mPa·s
303.15 K, 101 kPa, x2 = 0.8629 | 0.5144 ± 0.0068 mPa·s and 0.5144 ± 0.0099 mPa·s
308.15 K, 101 kPa, x2 = 0.0702 | 0.3021 ± 0.0048 mPa·s and 0.3021 ± 0.0059 mPa·s
308.15 K, 101 kPa, x2 = 0.1468 | 0.3267 ± 0.005 mPa·s and 0.3267 ± 0.0064 mPa·s
308.15 K, 101 kPa, x2 = 0.2269 | 0.3517 ± 0.0052 mPa·s and 0.3517 ± 0.0068 mPa·s
308.15 K, 101 kPa, x2 = 0.3135 | 0.3785 ± 0.0055 mPa·s and 0.3785 ± 0.0073 mPa·s
308.15 K, 101 kPa, x2 = 0.4051 | 0.404 ± 0.0057 mPa·s and 0.404 ± 0.0078 mPa·s
308.15 K, 101 kPa, x2 = 0.5072 | 0.425 ± 0.0059 mPa·s and 0.425 ± 0.0082 mPa·s
308.15 K, 101 kPa, x2 = 0.616 | 0.4443 ± 0.0061 mPa·s and 0.4443 ± 0.0086 mPa·s
308.15 K, 101 kPa, x2 = 0.7355 | 0.4638 ± 0.0063 mPa·s and 0.4638 ± 0.0089 mPa·s
308.15 K, 101 kPa, x2 = 0.8629 | 0.4848 ± 0.0065 mPa·s and 0.4848 ± 0.0093 mPa·s
308.15 K, 101.32 kPa, x2 = 0.073 | 0.2891 ± 0.0037 mPa·s
308.15 K, 101.32 kPa, x2 = 0.149 | 0.3036 ± 0.0039 mPa·s
308.15 K, 101.32 kPa, x2 = 0.23 | 0.3204 ± 0.0041 mPa·s
308.15 K, 101.32 kPa, x2 = 0.318 | 0.3407 ± 0.0043 mPa·s
308.15 K, 101.32 kPa, x2 = 0.411 | 0.3615 ± 0.0045 mPa·s
308.15 K, 101.32 kPa, x2 = 0.51 | 0.3829 ± 0.0048 mPa·s
308.15 K, 101.32 kPa, x2 = 0.619 | 0.4072 ± 0.0051 mPa·s
308.15 K, 101.32 kPa, x2 = 0.736 | 0.4335 ± 0.0054 mPa·s
308.15 K, 101.32 kPa, x2 = 0.862 | 0.463 ± 0.0057 mPa·s
313.15 K, 101 kPa, x2 = 0.0929 | 0.2858 ± 0.0078 mPa·s
313.15 K, 101 kPa, x2 = 0.3674 | 0.3952 ± 0.011 mPa·s
313.15 K, 101 kPa, x2 = 0.8102 | 0.4622 ± 0.012 mPa·s
318.15 K, 101.32 kPa, x2 = 0.073 | 0.2628 ± 0.0035 mPa·s
318.15 K, 101.32 kPa, x2 = 0.149 | 0.2767 ± 0.0036 mPa·s
318.15 K, 101.32 kPa, x2 = 0.23 | 0.2923 ± 0.0038 mPa·s
318.15 K, 101.32 kPa, x2 = 0.319 | 0.3081 ± 0.0039 mPa·s
318.15 K, 101.32 kPa, x2 = 0.412 | 0.3264 ± 0.0041 mPa·s
318.15 K, 101.32 kPa, x2 = 0.511 | 0.347 ± 0.0044 mPa·s
318.15 K, 101.32 kPa, x2 = 0.61 | 0.367 ± 0.0046 mPa·s
318.15 K, 101.32 kPa, x2 = 0.737 | 0.3916 ± 0.0049 mPa·s
318.15 K, 101.32 kPa, x2 = 0.863 | 0.4162 ± 0.0052 mPa·s
323.15 K, 101 kPa, x2 = 0.0929 | 0.2564 ± 0.007 mPa·s
323.15 K, 101 kPa, x2 = 0.3674 | 0.3538 ± 0.0096 mPa·s
323.15 K, 101 kPa, x2 = 0.8102 | 0.4467 ± 0.012 mPa·s

Source: the CheMixHub viscosity set
